In patent US20050233967A1, “Compositions, systems, and methods for focusing a cell-mediated immune response” (priority 2002, published 2005):

How the values were obtained:
IFN-γ [1] = assay: IFN-γ Levels in Chlamydia Patients (ProCon IFN-γ assay, 492 nm); type: in vivo, human; settings: urogenital chlamydiosis patients, First Group: claritomycin, doxycyclin and ofloxacin in succession; after treatment
Procedure: Among other cytokine levels, levels of IFN-γ were determined for three groups, each including fifteen (15) individuals, and compared with IFN-γ levels of the aforementioned group of fifteen (15) “normal” blood donors. The individuals of a first group were treated with 500 mg of claritomycin twice daily for ten (10) to fourteen (14) days, 100 mg of doxycyclin once daily for ten (10) days, and 200 mg of ofloxacin twice daily for ten (10) days, with the drugs having been administered in succession. The individuals of the second group received 500 mg of claritomycin twice daily for ten (10) to fourteen (14) days and one capsule of TRANSFER FACTOR PLUS three times each day for ten (10) days, with treatment with the claritomycin and TRANSFER FACTOR PLUS beginning on the same day. In the third group, each individual was treated with 500 mg of claritomycin twice daily for ten (10) to fourteen (14) days and one capsule of TRANSFER FACTOR thrice daily for ten (10) days, with administration of the claritomycin and TRANSFER FACTOR PLUS having begun on the same day. […] The following TABLE 5 lists the collective measures of IFN-γ in all three groups, as determined by use of the ProCon IFN-γ assay available from Protein Contour and photometrically measured at a wavelength of 492 nm. […]

IFN-γ [2] = assay: IFN-γ Levels in Chronic Opisthorchiasis Patients (ProCon IFN-γ assay, 492 nm); type: in vivo, human; settings: Second Group: praziquantel only, two weeks after treatment
Source text: Forty-five (45) individuals with chronic opisthorchiasis were split into two groups: a first group including twenty-five (25) individuals and a second group including twenty (20) individuals. The individuals of both groups received conventional praziquantel treatment, an anti-parasitic, or antihelminthic, drug which is used in the treatment of opisthorchiasis and is available under the trade name BILTHRICIDE™ from Bayer AG of Leverkusen, Germany. In addition to praziquantel, two capsules of TRANSFER FACTOR PLUS were administered to the individuals of the first group following praziquantel treatment, three times daily for seven days. The individuals of the second group were only treated with praziquantel.
Levels of various cytokines, including γ-interferon (IFN-γ), antibodies, and immune complexes were determined, by known processes, for each the individuals prior to therapy and two weeks following TRANSFER FACTOR PLUS therapy in the individuals of the […] was discontinued. The following TABLE 4 lists the collective measures of IFN-γ in both groups, as determined by use of the ProCon IFN-γ assay available from Protein Contour of St. Petersburg, Russia, and photometrically measured at a wavelength of 492 nm. TABLE 4 also includes a collective measure of the IFN-γ levels of fifteen (15) “normal” blood donors.

SMILES: CC[C@H]1OC(=O)[C@H](C)[C@@H](O[C@H]2C[C@@](C)(OC)[C@@H](O)[C@H](C)O2)[C@H](C)[C@@H](O[C@@H]2O[C@H](C)C[C@H](N(C)C)[C@H]2O)[C@](C)(OC)C[C@@H](C)C(=O)[C@H](C)[C@@H](O)[C@]1(C)O [claritomycin]
- IFN-γ level (IFN-γ [1]): 31.4 ± 6.1

SMILES: O=C(C1CCCCC1)N1CC(=O)N2CCc3ccccc3C2C1 (centres unmarked) [praziquantel]
- IFN-γ level (IFN-γ [2]): 51.4 ± 6.3
